Measured values: US8986650B2, “Complex folate-NOTA-Ga68” (Guerbet, priority 2005, dated 2015)
Read-outs that look alike come from different tables or passages of the source.

How the values were obtained:
ovarian cancer = conditions: patients, phase I/II study; cited from earlier work
KB tumor cells (FR+) [1] = tested on: KB tumor cells (FR+)
Experimental: Nude mice bearing KB-tumors were used for this study.
The NODAGA-LINKER-FOLATE derivative was labeled with ^67Ga by incubation at RT with 37 MBq of ^67GaCl3 in HEPES buffer. […] It was diluted with 0.9% NaCl at a concentration of 4 nmol/ml and this solution was injected to the mice (100 μl/0.4 nmol/mouse).
One week before the tumor cell inoculation all mice were put under a folate low diet (SAFE company, semi-synthetic product with 50 μg/kg of folate) until the end of the study.
At D0, the tumor inoculation was performed as follow: One million (10^6) of KB tumor cells (FR+) resuspended at 1×10^7 cells/ml in sterile PBS 0.01M, pH 7.4, were subcutaneously inoculated in the right flank of the nude mice in a volume of 100 μl. The tumors were allowed to grow for 8-9 days. For the in vivo evaluation the mice were grouped in groups of 3 mice per group.
At D9 biodistribution studies were performed for the ^67Ga-NODAGA-LINKER-FOLATE (compound 2′ complexed by Ga67) in groups of mice as follow: • 3 groups: injection with ^67Ga-NODAGA-LINKER-FOLATE (compound 2′ complexed by Ga67) (0.4 nmol/10 μCi/100 μl/mouse) • 1 group: injection of Folic acid (40 nmol/100 μl/mouse) 5 min before the injection of ^67Ga-NODAGA-LINKER-FOLATE (compound 2′ complexed by Ga67) • 1 group: injection of Alimta (400 μg/100 μl/mouse) 1 h before the injection of ^67Ga-NODAGA-LINKER-FOLATE (compound 2′ complexed by Ga67) • Time points: 2 h, 4 h, 4 h (blocking with FA), 4 h (kidney blocking with Alimta), 24 h p.i. Results

KB tumor cells (FR+) [2] = test: Biodistribution of NODAGA-LINKER-FOLATE-Ga68 in nude mice bearing KB-tumors; assay type: in vivo; conditions: for Ratio tumor:blood / Ratio tumor:bone / Ratio tumor:kidney / Ratio tumor:liver / Ratio tumor:muscle / Ratio tumor:pancreas / Ratio tumor:parotid: 1 h post-injection
Experimental: The NODAGA-LINKER-FOLATE derivative was labeled with ^68Ga using the Modular-Lab automatic system by Eckert & Ziegler.
NODAGA-LINKER-FOLATE-Ga68 compound (compound 2) was obtained in radiochemical purity preferably >92 to >98%.
At D0, the tumor inoculation was performed as follow: One million (10^6) of KB tumor cells (FR+) resuspended at 1×10^7 cells/ml in sterile PBS 0.01M, pH 7.4, were subcutaneously inoculated in the right flank of the nude mice in a volume of 100 μl.
At D8 biodistribution studies and PET/CT images were performed for NODAGA-folate-Ga68 (compound 2) in 2 groups of mice as follow: • 1 group: injection with NODAGA-LINKER-FOLATE-Ga68 (compound 2) (0.4 nmol/2 MBq/100 μl/mouse) • 1 group: injection of Alimta (400 μg/100 μl/mouse) 1 h before the injection of NODAGA-LINKER-FOLATE-Ga68 (compound 2) • Time point: 1 h p.i.

OVCAR-3 tumors = test: Biodistribution and PET/CT imaging in mice model bearing OVCAR-3 tumor; assay type: in vivo, SCID mice
Experimental: Similar protocol was used for OVCAR-3 tumor models.
For the kidney blocking the antifolate Alimta, at a concentration of 4 mg/ml in PBS pH 7.4 was used.
For the Folate Receptors blocking Folic acid in 100-fold excess (400 nmol/ml) in PBS pH 7.4 was used.

[3] = Parotid gland uptake in normal mice without folate-free diet; assay type: in vivo; conditions: no folate-free diet
[4] = 4 h Alimta pre-injection (400 μg/mouse, 1 h)
[5] = 4 h blocking with Folic acid (100-fold excess, 5 min pre-injection)
[6] = Group 1: Alimta 400 μg/mouse 1 h pre-injection

## Nc1nc2ncc(CNc3ccc(C(=O)N[C@@H](CCC(=O)NCCNC(=O)CN(CCN(CCN(CC(=O)[O-])CC(=O)[O-])CC(=O)[O-])CC(=O)[O-])C(=O)O)cc3)nc2c(=O)[nH]1.[111In] [111In-DTPA-folate]
Ovarian cancer
  Target-tissue uptake and non target-tissue clearance: rapid target-tissue uptake and non target-tissue clearance

## Nc1nc2ncc(CNc3ccc(C(=O)N[C@@H](CCC(=O)NCCNC(=O)CCC(C(=O)[O-])N4CCN(CC(=O)[O-])CCN(CC(=O)[O-])CC4)C(=O)O)cc3)nc2c(=O)[nH]1.[67Ga+3] (some centres unmarked) [NODAGA-LINKER-FOLATE-Ga67]
KB tumor cells (FR+) [1]; 2 h
  Biodistribution, Parotid gland: 9.10 ± 3.39
  Biodistribution, adrenal: 3.09 ± 0.52
  Biodistribution, blood: 0.09 ± 0.02
  Biodistribution, intestine: 0.50 ± 0.12
  Biodistribution, kidney: 142.14 ± 15.46
  Biodistribution, liver: 1.38 ± 0.50
  Biodistribution, lung: 1.32 ± 0.15
  Biodistribution, muscle: 1.49 ± 0.18
  Biodistribution, pancreas: 2.91 ± 0.08
  Biodistribution, pituitary: 0.53 ± 0.24
  Biodistribution, spleen: 0.48 ± 0.11
  Biodistribution, stomach: 1.58 ± 0.12
KB tumor cells (FR+) [1]; 4 h
  Biodistribution, Parotid gland: 8.58 ± 2.33
  Biodistribution, adrenal: 2.80 ± 0.10
  Biodistribution, blood: 0.06 ± 0.01
  Biodistribution, intestine: 0.43 ± 0.16
  Biodistribution, kidney: 130.31 ± 14.65
  Biodistribution, liver: 1.07 ± 0.18
  Biodistribution, lung: 1.36 ± 0.37
  Biodistribution, muscle: 2.12 ± 0.31
  Biodistribution, pancreas: 2.92 ± 0.11
  Biodistribution, pituitary: 0.79 ± 0.74
  Biodistribution, spleen: 0.46 ± 0.10
  Biodistribution, stomach: 1.47 ± 0.08
KB tumor cells (FR+) [1]; [4]
  Biodistribution, Parotid gland: 6.10 ± 2.09
  Biodistribution, adrenal: 1.75 ± 0.23
  Biodistribution, blood: 0.04 ± 0.01
  Biodistribution, intestine: 0.50 ± 0.37
  Biodistribution, kidney: 19.13 ± 6.66
  Biodistribution, liver: 0.88 ± 0.26
  Biodistribution, lung: 0.68 ± 0.18
  Biodistribution, muscle: 1.26 ± 0.38
  Biodistribution, pancreas: 2.20 ± 0.69
  Biodistribution, pituitary: 0.59 ± 0.41
  Biodistribution, spleen: 0.31 ± 0.13
  Biodistribution, stomach: 0.84 ± 0.31
KB tumor cells (FR+) [1]; [5]
  Biodistribution, Parotid gland: 0.18 ± 0.06
  Biodistribution, adrenal: 0.02 ± 0.01
  Biodistribution, blood: 0.00 ± 0.00
  Biodistribution, intestine: 0.08 ± 0.07
  Biodistribution, kidney: 6.49 ± 1.03
  Biodistribution, liver: 0.06 ± 0.00
  Biodistribution, lung: 0.06 ± 0.00
  Biodistribution, muscle: 0.03 ± 0.00
  Biodistribution, pancreas: 0.05 ± 0.00
  Biodistribution, pituitary: −0.02 ± 0.01
  Biodistribution, spleen: 0.04 ± 0.01
  Biodistribution, stomach: 0.09 ± 0.06
KB tumor cells (FR+) [1]; 24 h
  Biodistribution, Parotid gland: 5.57 ± 0.82
  Biodistribution, adrenal: 5.04 ± 5.96
  Biodistribution, blood: 0.04 ± 0.02
  Biodistribution, intestine: 0.37 ± 0.13
  Biodistribution, kidney: 97.62 ± 11.59
  Biodistribution, liver: 0.87 ± 0.16
  Biodistribution, lung: 0.94 ± 0.31
  Biodistribution, muscle: 1.14 ± 0.01
  Biodistribution, pancreas: 2.37 ± 0.17
  Biodistribution, pituitary: 0.41 ± 0.39
  Biodistribution, spleen: 0.37 ± 0.13
  Biodistribution, stomach: 1.01 ± 0.10
KB tumor cells (FR+) [1]; KB-tumor bearing nude mice
  Time of maximum tumor uptake: 2 h p.i.
KB tumor cells (FR+) [1]; at 24 h p.i.
  Tumor uptake: remains high
KB tumor cells (FR+) [1]; blocking experiment with folic acid
  Specificity of tumor uptake: specific
KB tumor cells (FR+) [1]; with the use of Alimta
  Kidney uptake: significantly reduced
  Tumor uptake: remained the same

## Nc1nc2ncc(CNc3ccc(C(=O)N[C@@H](CCC(=O)NCCNC(=O)CCC(C(=O)O)N4CCN(CC(=O)O)CCN(CC(=O)O)CC4)C(=O)O)cc3)nc2c(=O)[nH]1 (some centres unmarked) [NODAGA-LINKER-FOLATE-Ga68, folate-NODAGA-Ga68, metal not drawn]
KB tumor cells (FR+) [2]; [6]
  Ratio tumor:blood: 49.33
  Ratio tumor:bone: 20.96
  Ratio tumor:kidney: 0.69
  Ratio tumor:liver: 10.49
  Ratio tumor:muscle: 13.32
  Ratio tumor:pancreas: 9.30
  Ratio tumor:parotid: 2.63
KB tumor cells (FR+) [2]; Group 2: no Alimta
  Ratio tumor:blood: 64.85
  Ratio tumor:bone: 28.11
  Ratio tumor:kidney: 0.17
  Ratio tumor:liver: 6.64
  Ratio tumor:muscle: 9.95
  Ratio tumor:pancreas: 6.89
  Ratio tumor:parotid: 1.72
KB tumor cells (FR+) [2]; KB-tumor mice under folate-free diet
  Uptake in the parotid gland: High uptake
OVCAR-3 tumors; 1 h post injection
  PET/CT images: background: negligible background
  PET/CT images: kidneys: high uptake in the kidneys
  PET/CT images: tumors: clear visualization of the tumors
OVCAR-3 tumors; mouse, in vivo
  Quality of PET/CT images: Very satisfying
[3]
  High uptake in the parotid gland: This was not the case
